Data set [1] relates to sweetpotato whitefly (Bemisia tabaci (Gennadius)). The data set can be described thus: whole plant or invertebrate. It is filed as in vivo. Particulars: 312 h, cotton plant infested with eggs, assessed after 13 days; for mortality at 50 ppm: sprayed at 50 ppm; for mortality at 10 ppm: tested at 10 ppm. As to the method: (§1) Test compounds were formulated using a solution containing 10% acetone, 90% water and 300 ppm Activator 90® non-ionic surfactant (Loveland Products, Loveland, Colorado, USA). The formulated compounds were applied in 1 mL of liquid through an atomizer nozzle positioned 1.27 cm (0.5 inches) above the top of each test unit. Test compounds were sprayed at the rates indicated, and each test was replicated three times.
For evaluating control of the sweetpotato whitefly (Bemisia tabaci (Gennadius)) through contact and/or systemic means, the test unit consisted of a small open container with a 12-14-day-old cotton plant inside. Prior to the spray application, both cotyledons were removed from the plant, leaving one true leaf for the assay. Adult whiteflies were allowed to lay eggs on the plant and then were removed from the test unit. Cotton plants infested with at least 15 eggs were submitted to the test for spraying.
[…] After spraying, the test units were allowed to dry for 1 hour. The cylinders were then removed, and the units were taken to a growth chamber and held for 13 days at 28° C. and 50-70% relative humidity. Each test unit was then visually assessed for insect mortality.

In data set [2] the test system is cotton melon aphid (Aphis gossypii (Glover)). The data set can be described thus: whole plant or invertebrate. It is filed as in vivo. Conditions: 144 h, okra plant, assessed after 6 days; for mortality at 50 ppm: sprayed at 50 ppm; for mortality at 10 ppm: tested at 10 ppm. How it is done: as §1
For evaluating control of cotton melon aphid (Aphis gossypii (Glover)) through contact and/or systemic means, the test unit consisted of a small open container with a 5-day-old okra plant inside. This was pre-infested with 30-40 insects on a piece of leaf according to the cut-leaf method, and the soil of the test unit was covered with a layer of sand.
[…] After spraying, the test units were maintained in a growth chamber for 6 days at 19° C. and 70% relative humidity. Each test unit was then visually assessed for insect mortality.

In data set [3] the test system is corn planthopper (Peregrinus maidis (Ashmead)). The data set can be described thus: whole plant or invertebrate. Particulars: 144 h, corn plant, nymphs, assessed after 6 days; for mortality at 10 ppm: sprayed at 10 ppm; for mortality at 50 ppm: sprayed at 50 ppm. Type of data set: in vivo. As to the method: as §1
For evaluating control of corn planthopper (Peregrinus maidis (Ashmead)) through contact and/or systemic means, the test unit consisted of a small open container with a 3-4-day-old corn (maize) plant inside. White sand was added to the top of the soil prior to application of the test compound.
Test compounds were formulated and sprayed at 250 and/or 50 ppm and/or 10 ppm. After spraying of the formulated test compound, the test units were allowed to dry for 1 h before they were post-infested with ˜15-20 nymphs (18-to-21-day-old). A black, screened cap was placed on the top of each test unit, and the test units were held for 6 days in a growth chamber at 22-24° C. and 50-70% relative humidity. Each test unit was then visually assessed for insect mortality.

Data set [4] relates to Brown Planthopper (Nilaparvata lugens (Stil)). The experiment in a line: Test F: control of Brown Planthopper, spray, contact and/or systemic. It is filed as in vivo. Conditions: 120 h, sprayed at 10 ppm, rice stems, nymphs, assessed after 5 days. As to the method: as §1
For evaluating control of Brown Planthopper (Nilaparvata lugens (Stil)) through contact and/or systemic means, the test unit consisted of a small open container with 6-10 25-day-old rice stems inside. White sand was added to the top of the soil prior to application of the test compound.
Test compounds were formulated and sprayed at 50 ppm and/or 10 ppm. After spraying of the formulated test compound, the test units were allowed to dry for 1 h before they were post-infested with ˜15-20 nymphs (15-to-17-day-old). A black, screened cap was placed on the top of each test unit, and the test units were held for 5 days in a growth chamber at 28° C. and 65% relative humidity. Each test unit was then visually assessed for insect mortality.

The subject of data set [5] is green peach aphid (Myzus persicae (Sulzer)). The data set can be described thus: whole plant or invertebrate. Conditions: 144 h, sprayed at 50 ppm, radish plant, assessed after 6 days. It is filed as in vivo. How it is done:
as §1
For evaluating control of green peach aphid (Myzus persicae (Sulzer)) through contact and/or systemic means, the test unit consisted of a small open container with a 12-15-day-old radish plant inside. This was pre-infested by placing on a leaf of the test plant 30-40 aphids on a piece of leaf excised from a culture plant (cut-leaf method). The aphids moved onto the test plant as the leaf piece desiccated. After pre-infestation, the soil of the test unit was covered with a layer of sand.
Test compounds were formulated and sprayed at 250 and/or 50 ppm. After spraying of the formulated test compound, each test unit was allowed to dry for 1 hour and then a black, screened cap was placed on top. The test units were held for 6 days in a growth chamber at 19-21° C. and 50-70% relative humidity. Each test unit was then visually assessed for insect mortality.

Data set [6] has the same test system. The experiment in a line: whole plant or invertebrate. It is filed as in vivo. Conditions: 144 h, tested at 10 ppm, radish plant, assessed after 6 days.
Data set [7] relates to potato leafhopper (Empoasca fabae (Harris)). The experiment in a line: Test B: control of potato leafhopper, spray, contact and/or systemic. Conditions: tested at 50 ppm; Soleil bean plant, adults, assessed after 6 days. It is filed as in vivo. How it is done:
as §1
Each test unit was then visually assessed for insect mortality.

Mortality and melting point data for 16 molecules are collected here from patent publication US20240365784A1, “AZOLE COMPOUNDS FOR CONTROLLING INVERTEBRATE PESTS” (FMC Corporation, priority 2021, published 2024).

Where only a bound is given, the exact number is not on record here.

In general, mortality refers to the percentage killed. Higher therefore signals a strong lethal effect. With `Fc1cncc(-n2cccn2)c1Cc1ccc(SC(F)(F)F)cc1` [Compound 19], the mortality at 50 ppm in data set [1] is at least 70%; in data set [2] it was at least 80%; in data set [5], at least 80%. The mortality at 10 ppm in data set [1] was at least 70%; in data set [2], at least 80%; in data set [3], at least 80%; in data set [4] it was at least 80%.
Regarding `FC(F)(F)Sc1ccc(Cc2c(Cl)cncc2-n2cccn2)cc1` [Compound 20], the mortality at 50 ppm in data set [1] was at least 70%; in data set [2], at least 80%; in data set [3], at least 80%; in data set [5], at least 80%. Moreover, the mortality at 10 ppm in data set [1] is at least 70%; in data set [2], at least 80%; in data set [3] it was at least 80%; in data set [4], at least 80%.
`Fc1cncc(-n2cncn2)c1Cc1ccc(SC(F)(F)F)cc1` [Compound 24]: the mortality at 10 ppm in data set [6] was at least 80%. Moreover, the mortality at 50 ppm in data set [2] and in data set [5] was at least 80% in each case.
Consider `Fc1cncc(-n2nccn2)c1Cc1ccc(OC(F)(F)F)cc1` [Compound 1, 3-fluoro-5-(triazol-2-yl)-4-[[4(trifluoromethoxy)phenyl]methyl]pyridine], for which the mortality at 50 ppm in data set [1] is at least 70%; in data set [3], at least 80%; in data set [5] it was at least 80%. Also, the mortality at 10 ppm in data set [3] and in data set [4] was at least 80% each time.
Regarding `FC(F)(F)Sc1ccc(Cc2c(Cl)cncc2-n2nccn2)cc1` [Compound 5], the mortality at 50 ppm is at least 70% in data set [1], at least 80% in data set [2], at least 80% in data set [3] and at least 80% in data set [5]. Also, the mortality at 10 ppm was at least 70% in data set [1], at least 80% in data set [6], at least 80% in data set [3] and at least 80% in data set [4].
With `Cc1cnn(-c2cncc(F)c2Cc2ccc(OC(F)(F)F)cc2)n1` [Compound 3, 3-fluoro-5-(4-methyltriazol-2-yl)-4-[[4-(trifluoromethoxy)phenyl]methyl]pyridine], the mortality result in data set [7] is given as “at least 80%”.
A word on the melting point: it is the temperature of the solid-liquid transition. `[O-][S+](c1ccc(Cc2ccncc2-n2nccn2)cc1)C(F)(F)F` (stereo not drawn) [Compound 28]: the melting point lay within 81 to 84 °C.
With `Fc1cc(Cc2c(Cl)cncc2-n2nccn2)ccc1OC(F)(F)F` [Compound 70], the mortality at 10 ppm in data set [6], in data set [2] and in data set [3] was at least 80% each time. Besides, the mortality at 50 ppm in data set [2], in data set [3] and in data set [5] was at least 80% in each case.
Turning to `FC(F)(F)Sc1ccc(Cc2c(Br)cncc2-n2nccn2)cc1` [Compound 26], the mortality at 50 ppm in data set [1] was at least 70%; in data set [2], at least 80%; in data set [3], at least 80%; in data set [5], at least 80%. Further, the mortality at 10 ppm in data set [1] is at least 70%; in data set [6], at least 80%; in data set [2] it was at least 80%; in data set [3] it was at least 80%; in data set [4] it was at least 80%.
Take `CC(c1ccc(SC(F)(F)F)cc1)c1c(F)cncc1-n1nccn1` (stereo not drawn) [Compound 8]: the mortality at 50 ppm in data set [2], in data set [3] and in data set [5] was at least 80% in each case. Further, the mortality at 10 ppm in data set [2], in data set [3] and in data set [4] was at least 80% each time.
In the case of `Fc1cncc(-n2nccn2)c1Cc1ccc(SC(F)(F)F)cc1` [Compound 2], the mortality at 10 ppm in data set [6], in data set [2], in data set [3] and in data set [4] was at least 80% each time. Besides, the mortality at 50 ppm in data set [2], in data set [3] and in data set [5] was at least 80% throughout.
Regarding `CC(c1ccc(OC(F)(F)F)cc1)c1c(F)cncc1-c1nccs1` (stereo not drawn) [Compound 63], the mortality at 50 ppm in data set [1] is at least 70%; in data set [2] it was at least 80%; in data set [3] it was at least 80%; in data set [5] it was at least 80%. Also, the mortality at 10 ppm in data set [2] and in data set [3] was at least 80% throughout.
Turning to `Fc1cncc(-n2nccn2)c1Cc1ccc(OC(F)(F)F)c(Br)c1` [Compound 69], the mortality at 50 ppm in data set [1] is at least 70%; in data set [2], at least 80%; in data set [3], at least 80%; in data set [5], at least 80%. In data set [3], this molecule had a mortality at 10 ppm of at least 80%.
Regarding `CC(c1ccc(OC(F)(F)F)cc1)c1c(F)cncc1-n1nccn1` (stereo not drawn) [Compound 9, 3-fluoro-5-(triazol-2-yl)-4-[1-[4-(trifluoromethoxy)phenyl]ethyl]pyridine], the mortality at 50 ppm is at least 70% in data set [1], at least 80% in data set [2], at least 80% in data set [3] and at least 80% in data set [5]. Also, the mortality at 10 ppm in data set [2] and in data set [3] was at least 80% throughout.
On to `FC(F)(F)Sc1ccc(Cc2c(Cl)cncc2-n2cncn2)cc1` [Compound 21], for which the mortality at 50 ppm in data set [1] is at least 70%; in data set [2], at least 80%; in data set [5], at least 80%. Moreover, the mortality at 10 ppm in data set [1] is at least 70%; in data set [6], at least 80%.
For the molecule `Fc1cncc(-n2nccn2)c1Cc1ccc(Br)cc1` [Compound 31], the melting point is 80 to 83 °C.
